From patent publication US20210386704A1, “MDMA RESPONSE PREDICTION” (Universitätsspital Basel, priority 2020, published 2021)

Assays:
[1] = tested on: healthy human subjects; assay: Pooled analysis: autonomic response to MDMA (blood pressure, heart rate, body temperature; Emax)
[2] = poor vs extensive/normal metabolizers; de la Torre et al., 2005; Schmid et al., 2016; cited from earlier work
[3] = Pooled analysis of ten placebo-controlled crossover studies: MDMA plasma concentration (AUC 0-6 h)
[4] = tested on: healthy human subjects; assay: Pooled analysis: subjective response to MDMA (VAS, AMRS, 5D-ASC)

With `CNC(C)Cc1ccc2c(c1)OCO2` (racemic) [MDMA, (±)3,4-methylenedioxymethamphetamine] the “Heart rate increase, relation to older age” value ([1]; LASSO model (FIG. 3)) was “lower heart rate increase”, the “Temperature increase, relation to older age” value ([1]; LASSO model (FIG. 3)) was “lower temperature increase” and the “Heart rate, correlation with age” value ([1]; adjusted for dose per body weight (FIG. 2), p<0.05) was “inverse correlation between heart rate and age remained significant”. For the same molecule, the “MDMA blood plasma concentrations in CYP2D6 poor metabolizers” value [2] was “higher MDMA blood plasma concentrations than extensive/normal metabolizers”, the “MDMA plasma concentration, relation to genetically determined CYP2D6 activity” value ([3]; adjusted for dose per body weight (FIG. 2), p<0.01) was “still inversely correlated with the MDMA plasma concentration” and the “MDMA concentrations and response in subjects with poor CYP2D6 activity” value ([3]; poor vs extensive CYP2D6 metabolizers (FIGS. 1 and 2)) was “higher MDMA concentrations and a stronger MDMA response compared with CYP2D6 extensive metabolizers”. The “MDMA plasma AUC over 6 hours, women vs men” value ([3]; similar total doses, not accounting for body weight) was “women exhibit significantly higher MDMA plasma AUC than men”, the “Bad drug effect, relation to older age” value ([4]; LASSO model (FIG. 3)) was “higher bad drug effect” and the “Strongest predictor of outcome effects after MDMA (plasma AUC, MAP increase, AMRS, VAS, 5D-ASC ratings)” value ([4]; LASSO model (FIG. 3)) was “dose per body weight is the strongest predictor”. The “Sex as predictor of response” value ([4]; adjusted for dose and body weight (FIG. 2)) was “lost its predictor value”, the “Effect of well-being (AMRS) before MDMA on response” value ([4]; dose-adjusted (FIG. 2)) was “no significant effect as predictor variable on the response to MDMA” and the “Dread of ego dissolution and impaired control and cognition (5D-ASC) in subjects with higher neuroticism (NEO-FFI) and trait anxiety (STAI-T)” value ([4]; dose-adjusted (FIG. 2), both p<0.01 and both p<0.05) was “more likely to experience “dread of ego dissolution” and “impaired control and cognition””. For the same molecule, the “Closeness (VAS), oceanic boundlessness and visionary restructuralization (5D-ASC), relation to openness to experience (NEO-FFI)” value ([4]; dose-adjusted (FIG. 2), p<0.05, p<0.05, p<0.01) was “positively correlated”, the “Effect of past use of MDMA on response” value ([4]; past use within the range of 0-5 times (FIG. 2 and FIG. 3)) was “no significant effect on the response to MDMA” and the “Good drug effect / positive effects, relation to dose” value ([4]; within range of doses tested (75 and 125 mg)) was “a high dose of MDMA (>75 mg) is needed to produce greater positive effects”. For the same molecule, the “Intensity of response at high dose of MDMA per body weight” value ([4]; within the 75-125 mg absolute dose range (FIG. 1)) was “more intense response to MDMA with more positive and more cardiostimulant effects”.
